Numbers after ± are expanded uncertainties.
Assay: mn = molality of the nth substance listed, in mol/kg
Conditions: 100 kPa, Liquid; for speed of sound: Frequency=3 MHz, Sing-around technique in a fixed-path interferometer; for mass density: Vibrating tube method

NCC(=O)O [2-aminoacetic acid] + O
Conditions | mass density, 288.15 K [kg/m3] | mass density, 298.15 K [kg/m3] | mass density, 308.15 K [kg/m3] | mass density, 318.15 K [kg/m3] | speed of sound, 288.15 K [m/s] | speed of sound, 298.15 K [m/s] | speed of sound, 308.15 K [m/s] | speed of sound, 318.15 K [m/s]
m1 = 0.01095 | 999.494 ± 0.42 | 997.428 ± 0.42 | 994.433 ± 0.42 | 990.57 ± 0.42 | 1467.3 ± 1.9 | 1496.5 ± 1.9 | 1520 ± 1.9 | 1536.6 ± 1.9
m1 = 0.02116 | 999.815 ± 0.42 | – | 994.686 ± 0.42 | 990.869 ± 0.42 | 1467.9 ± 1.9 | 1497 ± 1.9 | 1520.6 ± 1.9 | 1537.1 ± 1.9
m1 = 0.04014 | 1000.41 ± 0.43 | 998.287 ± 0.43 | 995.236 ± 0.43 | 991.411 ± 0.42 | 1469 ± 1.9 | 1498 ± 1.9 | 1521.5 ± 1.9 | 1538 ± 1.9
m1 = 0.06033 | 1001.05 ± 0.44 | – | 995.832 ± 0.43 | 991.989 ± 0.43 | 1470.1 ± 1.9 | 1499 ± 1.9 | 1522.5 ± 1.9 | 1539 ± 1.9
m1 = 0.08023 | 1001.7 ± 0.45 | 999.548 ± 0.45 | – | – | 1471.2 ± 1.9 | 1500.1 ± 1.9 | 1523.5 ± 1.9 | 1540 ± 1.9
m1 = 0.1006 | 1002.36 ± 0.47 | 1000.17 ± 0.47 | 997.123 ± 0.46 | 993.251 ± 0.46 | 1472.4 ± 1.9 | 1501.2 ± 1.9 | 1524.5 ± 1.9 | 1540.9 ± 1.9
m1 = 0.15 | 1003.96 ± 0.52 | 1001.73 ± 0.51 | – | 994.665 ± 0.5 | 1475.2 ± 1.9 | 1503.8 ± 1.9 | 1527 ± 1.9 | 1543.3 ± 1.9
m1 = 0.2003 | 1005.57 ± 0.58 | 1003.28 ± 0.53 | 1000.2 ± 0.52 | 996.211 ± 0.56 | 1478 ± 2 | 1506.4 ± 1.9 | 1529.5 ± 1.9 | 1545.7 ± 1.9

O=C(N[C@H](CO)[C@H](O)c1ccc([N+](=O)[O-])cc1)C(Cl)Cl + O
Conditions | mass density, 288.15 K [kg/m3] | mass density, 298.15 K [kg/m3] | mass density, 308.15 K [kg/m3] | mass density, 318.15 K [kg/m3] | speed of sound, 288.15 K [m/s] | speed of sound, 298.15 K [m/s] | speed of sound, 308.15 K [m/s] | speed of sound, 318.15 K [m/s]
m1 = 0.0005 | 999.273 ± 0.42 | 997.209 ± 0.42 | 994.205 ± 0.42 | 990.372 ± 0.42 | 1466.9 ± 1.9 | 1496 ± 1.9 | 1519.6 ± 1.9 | 1536.2 ± 1.9
m1 = 0.001 | 999.429 ± 0.42 | 997.363 ± 0.42 | 994.356 ± 0.42 | 990.522 ± 0.42 | 1467 ± 1.9 | 1496.1 ± 1.9 | 1519.7 ± 1.9 | 1536.4 ± 1.9
m1 = 0.002 | 999.643 ± 0.42 | 997.576 ± 0.42 | 994.56 ± 0.42 | 990.713 ± 0.42 | 1467.1 ± 1.9 | 1496.2 ± 1.9 | 1519.9 ± 1.9 | 1536.5 ± 1.9
m1 = 0.004 | 999.922 ± 0.42 | 997.847 ± 0.42 | 994.831 ± 0.42 | 990.992 ± 0.42 | 1467.5 ± 1.9 | 1496.7 ± 1.9 | 1520.2 ± 1.9 | 1536.8 ± 1.9

NCC(=O)NCC(=O)O [glycylglycine] + O
Conditions | mass density, 288.15 K [kg/m3] | mass density, 298.15 K [kg/m3] | mass density, 308.15 K [kg/m3] | mass density, 318.15 K [kg/m3] | speed of sound, 288.15 K [m/s] | speed of sound, 298.15 K [m/s] | speed of sound, 308.15 K [m/s] | speed of sound, 318.15 K [m/s]
m1 = 0.01033 | 999.704 ± 0.42 | 997.627 ± 0.42 | 994.594 ± 0.42 | 990.758 ± 0.42 | 1467.7 ± 1.9 | 1496.8 ± 1.9 | 1520.3 ± 1.9 | 1536.9 ± 1.9
m1 = 0.02031 | 1000.23 ± 0.43 | 998.133 ± 0.43 | 995.135 ± 0.43 | 991.281 ± 0.42 | 1468.6 ± 1.9 | 1497.7 ± 1.9 | 1521.2 ± 1.9 | 1537.7 ± 1.9
m1 = 0.04035 | 1001.4 ± 0.45 | 999.259 ± 0.44 | 996.28 ± 0.44 | 992.375 ± 0.44 | 1470.5 ± 1.9 | 1499.5 ± 1.9 | 1522.8 ± 1.9 | 1539.3 ± 1.9
m1 = 0.06012 | 1002.5 ± 0.47 | 1000.39 ± 0.47 | 997.363 ± 0.47 | 993.41 ± 0.46 | 1472.4 ± 1.9 | 1501.3 ± 1.9 | 1524.4 ± 1.9 | 1540.8 ± 1.9
m1 = 0.0802 | 1003.7 ± 0.51 | 1001.51 ± 0.5 | 998.463 ± 0.49 | 994.52 ± 0.49 | 1474.3 ± 1.9 | 1503.1 ± 1.9 | 1526 ± 1.9 | 1542.4 ± 1.9
m1 = 0.1011 | 1004.84 ± 0.54 | 1002.62 ± 0.54 | 999.564 ± 0.54 | 995.646 ± 0.53 | 1476.3 ± 1.9 | 1505 ± 1.9 | 1527.7 ± 1.9 | 1544 ± 1.9
m1 = 0.1502 | 1007.57 ± 0.65 | 1005.27 ± 0.65 | 1002.18 ± 0.64 | 998.186 ± 0.63 | 1480.9 ± 2 | 1509.4 ± 2 | 1531.8 ± 2 | 1547.9 ± 2
m1 = 0.1995 | 1010.2 ± 0.77 | 1007.94 ± 0.72 | 1004.8 ± 0.7 | 1000.72 ± 0.74 | 1485.5 ± 2.2 | 1513.8 ± 1.9 | 1535.8 ± 1.9 | 1551.8 ± 2.1
